Source: ChEMBL document CHEMBL3244078, “Synthesis and antihypertensive activity of novel 3-hydrazino-5-phenyl-1,2,4-triazines” (J Med Chem, 1979)
The source made the active and inactive calls. The calls are words filed in the database; no cut-off is given here.

Legend:
[1] = test system: Rattus norvegicus; assay: Antihypertensive activity in spontaneously hypertensive rat assessed as drop in mean systolic blood pressure at 100 mg/kg, po after 4 hrs by tail cuff method relative to vehicle-treated control; assay type: functional
[2] = test system: Rattus norvegicus; assay: Antihypertensive activity in spontaneously hypertensive rat assessed as drop in mean systolic blood pressure at 100 mg/kg, po after 24 hrs by tail cuff method relative to vehicle-treated control; assay type: functional
[3] = test system: Rattus norvegicus; assay: Antihypertensive activity in spontaneously hypertensive rat assessed as drop in mean systolic blood pressure at 100 mg/kg, po followed by second dosing at 24 hrs measured after 28 hrs by tail cuff method relative to vehicle-treated control; assay type: functional
[4] = test system: Rattus norvegicus; assay: Antihypertensive activity in spontaneously hypertensive rat assessed as drop in mean systolic blood pressure at 100 mg/kg, po followed by second dosing at 24 hrs measured after 48 hrs by tail cuff method relative to vehicle-treated control; assay type: functional
[5] = Toxicity in ip dosed CF-1 mouse after 48 hrs; conditions: in vivo

Structure (SMILES) | Activity ([1]; Artery) | Activity ([2]; Artery) | Activity ([3]; Artery) | Activity ([4]; Artery) | LD50 at 48 h [5] [mg/kg] | Activity [1] [mmHg] | Activity [2] [mmHg] | Activity [3] [mmHg] | Activity [4] [mmHg]
NNc1nncc(-c2ccc(Cl)c(Cl)c2)n1 | inactive | inactive | inactive | inactive | > 300 | – | – | – | –
O=C(NNc1nncc(-c2ccccc2)n1)c1ccccc1 | inactive | inactive | inactive | inactive | > 300 | – | – | – | –
Cc1ccc(-c2cnnc(NNC(=O)Cc3ccccc3)n2)cc1 | inactive | inactive | inactive | inactive | 237 | – | – | – | –
CCC(=O)NNc1nncc(-c2ccc(Cl)cc2)n1 | – | – | – | – | 237 | 47 | 79 | 107 | 111
NNc1nncc(-c2cccc(C(F)(F)F)c2)n1 | – | – | – | – | 316 | 26 | 0 | 48 | 40
CNNc1nncc(-c2cccc(Cl)c2)n1 | – | – | – | – | 237 | 28 | 35 | 63 | 51
Cl.O=C(Cc1ccccc1)NNc1nncc(-c2ccccc2)n1 | inactive | inactive | inactive | inactive | 237 | – | – | – | –
COc1ccc(-c2cnnc(NNC(C)=O)n2)cc1 | inactive | inactive | inactive | inactive | 237 | – | – | – | –
CNNc1nncc(-c2ccc(C)cc2)n1 | inactive | inactive | inactive | inactive | 316 | – | – | – | –
CNNc1nncc(-c2ccc(Cl)cc2)n1 | – | – | – | – | 316 | 0 | 12 | 39 | 53
O=C(NNc1nncc(-c2ccccc2)n1)C(F)(F)F | – | – | – | – | 178 | 51 | 29 | 70 | 88
Br.NC(Cc1ccccc1)C(=O)NNc1nncc(-c2ccccc2)n1.O (stereo unspecified) | – | – | – | – | 178 | 26 | 38 | 75 | 82
Br.CC(N)C(=O)NNc1nncc(-c2cccc(Cl)c2)n1.O (stereo unspecified) | inactive | inactive | inactive | inactive | 178 | – | – | – | –
O=C(CCCl)NNc1nncc(-c2ccc(Cl)cc2)n1 | inactive | inactive | inactive | inactive | 237 | – | – | – | –
O=C(CCCCl)NNc1nncc(-c2ccc(Cl)cc2)n1 | – | – | – | – | 237 | 0 | 25 | 48 | 73
CC(=O)NNc1nncc(-c2ccc(Cl)c(Cl)c2)n1 | inactive | inactive | inactive | inactive | 237 | – | – | – | –
Cl.O=C(NNc1nncc(-c2ccc(Cl)cc2)n1)C(Cl)(Cl)Cl | inactive | inactive | inactive | inactive | 237 | – | – | – | –
O=C(CCl)NNc1nncc(-c2ccccc2)n1 | – | – | – | – | 100 | 63 | 74 | 101 | 55

Structure (SMILES) | Activity ([1]; Artery) | Activity ([2]; Artery) | Activity ([3]; Artery) | Activity ([4]; Artery) | LD50 at 48 h [5] [mg/kg] | Activity [1] [mmHg] | Activity [2] [mmHg] | Activity [3] [mmHg] | Activity [4] [mmHg]
NNc1nncc(-c2cccc(Cl)c2)n1 | – | – | – | – | 237 | 0 | 0 | 55 | 51
CC(C)C(=O)NNc1nncc(-c2ccccc2)n1.Cl | – | – | – | – | 178 | 44 | 46 | 98 | 83
CCCCCC(=O)NNc1nncc(-c2ccccc2)n1.Cl | – | – | – | – | 178 | 53 | 53 | 81 | 68
CC(=O)NNc1nncc(-c2ccc(C)cc2)n1.O | inactive | inactive | inactive | inactive | > 300 | – | – | – | –
Cc1ccc(-c2cnnc(NN)n2)cc1.O | – | – | – | – | 224 | 62 | 28 | 75 | 38
COc1ccc(-c2cnnc(NN)n2)cc1 | – | – | – | – | 56 | 48 | 26 | 38 | 22
Cc1ccc(-c2cnnc(NNC(=O)C34CC5CC(CC(C5)C3)C4)n2)cc1.Cl | – | – | – | – | 216 | 32 | 0 | 24 | 30
O=C(NNc1nncc(-c2ccccc2)n1)C(Cl)Cl | – | – | – | – | 178 | 33 | 54 | 106 | 80
O=C(NNc1nncc(-c2cccc(Cl)c2)n1)C(F)(F)F | – | – | – | – | 237 | 0 | 0 | 64 | 59
CC(=O)NNc1nncc(-c2ccccc2)n1 | – | – | – | – | 178 | 40 | 94 | 106 | 104
Br.CC(C)C(N)C(=O)NNc1nncc(-c2ccc(Cl)cc2)n1.O (stereo unspecified) | – | – | – | – | 178 | – | – | – | –
Cc1ccc(-c2cnnc(NNC(=O)C(F)(F)F)n2)cc1 | inactive | inactive | inactive | inactive | > 300 | – | – | – | –
NNc1nncc(-c2ccc(Cl)cc2)n1 | – | – | – | – | 237 | 52 | 61 | 90 | 87
O=C(NNc1nncc(-c2ccc(Cl)cc2)n1)C(F)(F)F | – | – | – | – | 237 | 30 | 46 | 92 | 74
Br.CC(N)C(=O)NNc1nncc(-c2ccc(Cl)cc2)n1.O (stereo unspecified) | – | – | – | – | 237 | 44 | 58 | 91 | 103
CNNc1nncc(-c2ccccc2)n1 | – | – | – | – | 178 | 0 | 49 | 56 | 92
O=C(NNc1nncc(-c2ccccc2)n1)C1CCCCC1 | – | – | – | – | 237 | 24 | 51 | 76 | 79
